In patent US12019067B2, “Interferometry based systems to detect small mass changes of an object in a solution” (NantBio, Inc., priority 2020, dated 2024):
Values belong to the compound of their own block, whether it stands above or below them.

Key:
Type in all cases: cell-based, human
[1] = test system: H929 cells; test: Live cell interferometry (LCI) growth of H929 cells with or without bortezomib; details: for growth trajectory compared to the control: 96 well plate
Protocol: A typical assay may include, for a single plate, forming groups of seven wells. A range of concentrations may be used, with each concentration (e.g., a DMSO control, varying therapeutic concentrations of 0.039 nM, 0.156 nM, 0.625 nM, 2.5 nM, 10 nM, and 40 nM) applied to a group of wells. In some embodiments, cells are plated, therapeutic(s) are added, and images are collected every 10-15 minutes for the designated period of time.
For development of screening techniques, H929 cells may be used. H929 cells, which may be grown in serum free conditions, have the morphologic, ultrastructural, biochemical, immunologic, and cytochemical features of plasma cells (see, Gazdar et al., Blood (1986) 67(6): 1542-9). H929 cells, derived from a human patient with multiple myeloma, are commonly used for multiple myeloma testing and are sensitive to a variety of chemotherapeutic drugs.
In this experiment, about 1681 control cells and about 1272 bortezomib treated cells were screened.
A small but statistically significant difference in growth rate was detected at about 4.5 hrs. […] As shown in this graph, the growth trajectories of the control and bortezomib treated cells begin to diverge between 4-5 hours. […] Here, a vertical line indicates a statistically significant point of divergence using LCI techniques between 4-5 hours.
In this experiment, about 1889 control cells and about 1248 bortezomib treated cells were screened. Imaging was initiated after drug addition, every 12 min for 7 hrs. In this study, the normalized growth rate [1/h] of DMSO control cells was 0.0152, while the normalized growth rate [1/h] of 10 nM bortezomib treated cells was 0.0139, for a difference of −8.6% between these two growth rates. As shown by the graph, after about 5 hours, the normalized growth rate of control and 10 nM bortezomib treated cells diverged. Accordingly, under these conditions, efficacy of a drug was determined in about 5 hours.
For this graph, the same plate (as used in FIG. 21C) was imaged (for a total of 24 hours) after drug addition. An image was taken every 12 minutes for about 15 hours. About 1867 control cells and about 1426 bortezomib treated cells were screened.
FIGS. 22A-22D show another study using bortezomib. […] A clear response to the therapeutic was observed, with the drug EC50 expected to be between 2.5-10 nM.

[2] = test system: MM.1R and MM.1S cells; test: Multiple myeloma combinatorial screening of therapeutics by LCI, 96 well plate; details: for overall result: response / overall result: titration effect: 3 concentrations per drug, quadruplicate, 96 well plate; for ranking among screened drugs: bortezomib 20 nM and carfilzomib at 50 nM
Protocol: In this example, 6 therapeutics at 3 different concentrations, were added in quadruplicate to a 96 well plate. Thus, there were 19 different conditions: bortezomib (20, 5, 1.25 nM); carlifomib (50, 10, 2 nM); dexamethasone (300, 100, 33.3 nM); lenalidomide (50, 10, 2 nM); panobinostat (50, 10, 2 nM); pomalidomide (50, 10, 2 nM); and DMSO (300 nM) as a negative control. In clinical practice, the actual drugs/combinations may be provided by the clinician.
In this study, a large number of cells (12,000 total cells) were screened to identify optimal drugs and concentrations. This assay, while performed on MM.1R and MM.1S cells may be performed on any suitable cell type (e.g., patient derived cancer cells from multiple myeloma, breast cancer, lung cancer, etc.). For multiple myeloma cells, a protocol for CD138+ cell enrichment from patient bone marrow is provided in the art.
FIGS. 25B, 25C, and 25D show the results of this assay, in graphical, dot box, and table format respectively, in which multiple “best treatments” were identified using this system.

[3] = test system: MM.1S cells; test: LCI growth of MM.1S cells treated with bortezomib or dexamethasone
Source text: As an alternative, MM.1 cells may be used as model cell line for assay development, wherein MM.1S refers to a strain that is sensitive to a drug such as dexamethasone and MM.1R refers to a strain that is resistant to a drug such as dexamethasone. For these types of experiments, a 12 well plate may be seeded at about 1.5××10^5 cells per plate. The desired concentration of therapeutic(s) may be added to each of the six wells. Control wells may also be established using the same dilutions with DMSO as the test well containing drug. LCI imaging may begin immediately after drug addition, with images being taken every 10-15 minutes.
About 2.5××10^5 cells per well were placed on a poly-D-lysine 12 well plate, and incubated for one hour. About 200 nM dexamethasone, 10 nM bortezomib, or DMSO (in duplicate wells) were added to each well, and images were collected every 15 mins for up to 15 hours.

EC50 ([1]; Homo sapiens, NCI-H929, 96 well plate, 0-40 nM titration, expected value): 2.5 to 10 nM | EC50 ([3]; Homo sapiens, MM1.S cells, bortezomib titration): 2.5 to 10 nM
SMILES: CC(C)C[C@H](NC(=O)[C@H](Cc1ccccc1)NC(=O)c1cnccn1)B(O)O [bortezomib]
difference between growth rates of treated and DMSO control cells ([1]; 2 nM bortezomib): −6.55% | normalized growth rate ([1]; 2 nM bortezomib, imaged about 15 hours): 0.0172 h⁻¹ | difference between growth rates of treated and DMSO control cells ([1]; 10 nM bortezomib, first 7 hrs): −8.6% | normalized growth rate ([1]; 10 nM bortezomib, imaged every 12 min for 7 hrs after drug addition): 0.0139 h⁻¹ | difference between growth rates of treated and DMSO control cells ([1]; 10 nM bortezomib, later imaging about 15 hours (total 24 hours)): −119.6% | normalized growth rate ([1]; 10 nM bortezomib, same plate imaged further about 15 hours (total of 24 hours after drug addition)): 0.000443 h⁻¹ | growth trajectory compared to the control ([1]; 2.5 nM): did not show a difference in growth trajectory | growth trajectory compared to the control ([1]; 10 nM): significant decline in growth | overall result: response [2]: good/great response | overall result: titration effect [2]: good titration effect | ranking among screened drugs [2]: most effective drugs | sensitivity of cells to drug ([3]; MM.1S, 10 nM bortezomib): sensitive

SMILES: CC(C)C[C@H](NC(=O)[C@H](CCc1ccccc1)NC(=O)CN1CCOCC1)C(=O)N[C@@H](Cc1ccccc1)C(=O)N[C@@H](CC(C)C)C(=O)[C@@]1(C)CO1 [carfilzomib]
overall result: response [2]: good/great response | overall result: titration effect [2]: good titration effect | ranking among screened drugs [2]: most effective drugs

SMILES: Nc1cccc2c1C(=O)N(C1CCC(=O)NC1=O)C2=O (stereo not shown) [pomalidomide]
overall result: response [2]: some response | overall result: titration effect [2]: good titration effect

SMILES: C[C@@H]1C[C@H]2[C@@H]3CCC4=CC(=O)C=C[C@]4(C)[C@@]3(F)[C@@H](O)C[C@]2(C)[C@@]1(O)C(=O)CO [dexamethasone]
reduction of MM.1S growth ([3]; about 200 nM dexamethasone, imaged up to 15 hours): 80.5%

SMILES: Nc1cccc2c1CN(C1CCC(=O)NC1=O)C2=O (stereo not shown) [lenalidomide]
overall result: response [2]: no response | overall result: titration effect [2]: no titration effect
